The source of these data is US10292981B2, “Oxazoline and isoxazoline derivatives as CRAC modulators” (LUPIN LIMITED, priority 2010, dated 2019).

The assay relates to IL-2 secretion, Jurkat T cells. As to the kind of experiment: Inhibition of IL-2 secretion (PHA-stimulated Jurkat T cells, ELISA). Particulars: Homo sapiens; Jurkat T cells stimulated with PHA, 20 to 24 hours. The assay is classed as cell-based. How it is done: The CRAC channel modulatory activity of the compounds were thus evaluated by measuring the secretion of IL-2 by antigen stimulated T-cells in vitro. Alternatively, such activity can also be evaluated by assay methods known to one skilled in the art.
Inhibition of IL-2 secretion: Jurkat T cells were seeded at a density of 0.5 to 1 million cells per well in RPMI medium. Test compounds from this invention were added to the cells at different concentrations. This was followed by the addition of PHA, a T cell mitogen after 10 minutes.
The cells were then incubated for 20 to 24 hours in a CO2 incubator at 37° C. After incubation with the compounds, cells were centrifuged, collected the supernatant and processed for ELISA to quantitate the amount of IL-2 secreted. A commercial ELISA kit (R&D Systems, Inc. Minneapolis, Minn., USA) was used to estimate the IL-2 concentrations. Amount of IL-2 secreted by cells stimulated with PHA was considered as a 100% maximal signal and the decrease in amount of IL-2 secreted by cells treated with the test compounds was expressed as percent inhibition of the maximal signal. The dose response data was analyzed using 4-parametric sigmoidal dose response (variable slope) curve-fit.
(In general: An ELISA detects its analyte on a solid surface through an enzyme-linked reagent.)
What is called IC50 is the point on the concentration scale where inhibition reaches its midpoint. A lower IC50 goes with greater potency in that assay. In the case of `Cc1ccc(C2=NOC(C)(C)C2=O)cc1-c1cnc(NC(=O)c2cccnc2C)cn1` [Example 113, N-(5-(5-(5,5-dimethyl-4-oxo-4,5-dihydroisoxazol-3-yl)-2-methylphenyl)pyrazin-2-yl)-2-methylnicotinamide], the half-maximal inhibitory concentration (IC50) is 100 to 1000 nM. `CCc1ccc(C2=NOC(C)(C)C2=O)cc1-c1ccc(C(=O)Nc2ccncc2C)s1` [Example 158, 5-(5-(5,5-Dimethyl-4-oxo-4,5-dihydroisoxazol-3-yl)-2-ethylphenyl)-N-(3-methylpyridin-4-yl)thiophene-2-carboxamide] had an IC50 of less than 100 nM. The figure for `Cn1nc(-c2ccc(Cl)c(-c3ccc(NC(=O)c4c(F)cccc4F)cc3)c2)oc1=O` [Example 46, N-(2′-Chloro-5′-(4-methyl-5-oxo-4,5-dihydro-1,3,4-oxadiazol-2-yl)-[1,1′-biphenyl]-4-yl)-2,6-difluorobenzamide] is less than 100 nM; for `CC(C)c1ccc(C2=NOC(C)(C)C2=O)cc1-c1cnc(NC(=O)c2c(F)cccc2F)cn1` [Example 8, N-(5-(5-(5,5-dimethyl-4-oxo-4,5-dihydroisoxazol-3-yl)-2-isopropylphenyl)pyrazin-2-yl)-2,6-difluorobenzamide] it is 100 to 1000 nM; for `CC(=O)Nc1ccc(C2=NOC(C)(C)C2=O)cc1-c1ccc(NC(=O)c2c(F)cccc2F)cc1` [Example 19, N-(2′-acetamido-5′-(5,5-dimethyl-4-oxo-4,5-dihydroisoxazol-3-yl)-[1,1′-biphenyl]-4-yl)-2,6-difluorobenzamide] it is less than 100 nM. The figure for `CCc1ccc(C2=NOC(C)(C)C2=O)cc1-c1ccc(NC(=O)c2c(F)cccc2F)cn1` [Example 7, N-(6-(5-(5,5-dimethyl-4-oxo-4,5-dihydroisoxazol-3-yl)-2-ethylphenyl)pyridin-3-yl)-2,6-difluorobenzamide] is 100 to 1000 nM; for `COc1ccc(C2=NOC(C)(C)C2=O)cc1-c1ccc(NC(=O)c2snnc2C)cc1` [Example 16, N-(5′-(5,5-Dimethyl-4-oxo-4,5-dihydroisoxazol-3-yl)-2′-methoxy-[1,1′-biphenyl]-4-yl)-4-methyl-1,2,3-thiadiazole-5-carboxamide] it is less than 100 nM; for `COc1ccc(-c2nn(C)c(=O)o2)cc1-c1cnc(NC(=O)c2c(F)cccc2F)cn1` [Example 93, 2,6-Difluoro-N-(5-(2-methoxy-5-(4-methyl-5-oxo-4,5-dihydro-1,3,4-oxadiazol-2-yl)phenyl)pyrazin-2-yl)benzamide] it is less than 100 nM. The figure for `Cc1ccc(C2=NOC(C)(C)C2=O)cc1-c1cnc(NC(=O)c2c(F)cccc2Cl)cn1` [Example 80, 2-Chloro-N-(5-(5-(5,5-dimethyl-4-oxo-4,5-dihydroisoxazol-3-yl)-2-methylphenyl)pyrazin-2-yl)-6-fluorobenzamide] is less than 100 nM. `Cc1ccc(C2=NOC(C)(C)C2=O)cc1-c1ccc(NC(=O)c2c(F)cccc2F)nc1` [Example 4, N-(5-(5-(5,5-Dimethyl-4-oxo-4,5-dihydroisoxazol-3-yl)-2-methylphenyl)pyridin-2-yl)-2,6-difluorobenzamide] came in with an IC50 of 100 to 1000 nM. The figure for `COC1C(c2ccc(C)c(-c3ccc(NC(=O)c4c(F)cccc4F)cc3)c2)=NOC1(C)C` (stereo not shown) [Example 24, 2,6-Difluoro-N-(5′-(4-methoxy-5,5-dimethyl-4,5-dihydroisoxazol-3-yl)-2′-methyl-[1,1′-biphenyl]-4-yl)benzamide] is 100 to 1000 nM; for `COc1ccc(C2=NOC(C)(C)C2=O)cc1-c1ccc(NC(=O)c2c(F)cccc2F)nc1` [Example 17, N-(5-(5-(5,5-dimethyl-4-oxo-4,5-dihydroisoxazol-3-yl)-2-methoxyphenyl)pyridin-2-yl)-2,6-difluorobenzamide] it is more than 1000 nM.

Compound `COc1ccc(C2=NOC(C)(C)C2=O)cc1-c1ccc(NC(=O)c2c(F)cccc2F)cn1` [Example 18, N-(6-(5-(5,5-dimethyl-4-oxo-4,5-dihydroisoxazol-3-yl)-2-methoxyphenyl)pyridin-3-yl)-2,6-difluorobenzamide] displayed an IC50 of 100 to 1000 nM. The figure for `Cc1ccc(C2=NOC(C)(C)C2=O)cc1-c1ccc(NC(=O)c2c(F)cccc2F)cc1` [Example 3] is less than 100 nM. To `CC1(C)ON=C(c2ccc(C(C)(C)C)c(-c3ccc(NC(=O)c4c(F)cccc4F)cc3)c2)C1=O` [Example 10, N-(2′-(tert-butyl)-5′-(5,5-dimethyl-4-oxo-4,5-dihydroisoxazol-3-yl)-[1,1′-biphenyl]-4-yl)-2,6-difluorobenzamide] belongs more than 1000 nM; to `CCc1ccc(C2=NOC(C)(C)C2=O)cc1-c1ccc(C(=O)Nc2c(F)cccc2F)s1` [Example 157, N-(2,6-Difluorophenyl)-5-(5-(5,5-dimethyl-4-oxo-4,5-dihydroisoxazol-3-yl)-2-ethyl-phenyl)thiophene-2-carboxamide], less than 100 nM.

The compound `Cc1ccc(C2=NOC(C)(C)C2=O)cc1-c1cnc(NC(=O)c2c(F)cncc2F)cn1` [Example 114, N-(5-(5-(5,5-dimethyl-4-oxo-4,5-dihydroisoxazol-3-yl)-2-methylphenyl)pyrazin-2-yl)-3,5-difluoroisonicotinamide] had an IC50 of less than 100 nM. To `CCc1ccc(-c2nn(C)c(=O)o2)cc1-c1ccc(C(=O)Nc2c(F)cccc2F)s1` [Example 171, N-(2,6-Difluorophenyl)-5-(2-ethyl-5-(4-methyl-5-oxo-4,5-dihydro-1,3,4-oxadiazol-2-yl)phenyl)thiophene-2-carboxamide] belongs less than 100 nM; to `Cc1ccc(C2=NOC(C)(C)C2=O)cc1-c1cnc(NC(=O)c2c(Cl)cncc2Cl)cn1` [Example 103, 3,5-Dichloro-N-(5-(5-(5,5-dimethyl-4-oxo-4,5-dihydroisoxazol-3-yl)-2-methylphenyl)pyrazin-2-yl)isonicotinamide], 100 to 1000 nM.

`C=CCOc1ccc(C2=NOC(C)(C)C2=O)cc1-c1ccc(NC(=O)c2c(F)cccc2F)cc1` [Example 132, N-(2′-(allyloxy)-5′-(5,5-dimethyl-4-oxo-4,5-dihydroisoxazol-3-yl)-[1,1′-biphenyl]-4-yl)-2,6-difluorobenzamide]: the IC50 is 100 to 1000 nM. The figure for `Cc1ccc(-c2nn(C)c(=O)o2)cc1-c1cnc(NC(=O)c2c(F)cccc2F)cn1` [Example 87, 2,6-Difluoro-N-(5-(2-methyl-5-(4-methyl-5-oxo-4,5-dihydro-1,3,4-oxadiazol-2-yl)phenyl)pyrazin-2-yl)benzamide] is less than 100 nM; for `Cc1ccc(C2=NOC(C)(C)C2=O)cc1-c1cnc(NC(=O)c2ccncc2F)cn1` [Example 107, N-(5-(5-(5,5-dimethyl-4-oxo-4,5-dihydroisoxazol-3-yl)-2-methylphenyl)pyrazin-2-yl)-3-fluoroisonicotinamide] it is 100 to 1000 nM. `CCn1nc(-c2ccc(C)c(-c3ccc(NC(=O)c4c(F)cccc4F)cc3)c2)oc1=O` [Example 34, N-(5′-(4-Ethyl-5-oxo-4,5-dihydro-1,3,4-oxadiazol-2-yl)-2′-methyl-[1,1′-biphenyl]-4-yl)-2,6-difluorobenzamide] gave an IC50 of less than 100 nM. The figure for `CC(C)Oc1ccc(C2=NOC(C)(C)C2=O)cc1-c1cnc(NC(=O)c2c(F)cccc2F)cn1` [Example 126, N-(5-(5-(5,5-dimethyl-4-oxo-4,5-dihydroisoxazol-3-yl)-2-isopropoxy-phenyl)pyrazin-2-yl)-2,6-difluorobenzamide] is 100 to 1000 nM; for `Cc1ccc(C2=NC(C)(C)CO2)cc1-c1ccc(NC(=O)c2c(F)cccc2F)cc1` [Example 61, N-(5′-(4,4-dimethyl-4,5-dihydrooxazol-2-yl)-2′-methyl-[1,1′-biphenyl]-4-yl)-2,6-difluorobenzamide] it is 100 to 1000 nM; for `Cc1ccc(C2=NOC(C)(C)C2)cc1-c1cnc(NC(=O)c2c(F)cccc2F)cn1` [Example 53] it is 100 to 1000 nM. The figure for `COC1C(c2ccc(C)c(-c3cnc(NC(=O)c4c(F)cccc4F)cn3)c2)=NOC1(C)C` (stereo not shown) [Example 23, 2,6-difluoro-N-(5-(5-(4-methoxy-5,5-dimethyl-4,5-dihydroisoxazol-3-yl)-2-methylphenyl)pyrazin-2-yl)benzamide] is 100 to 1000 nM; for `Cc1c(-c2cnc(NC(=O)C3CCc4ccccc4C3)cn2)cccc1-c1nn(C)c(=O)o1` (racemic) [Example 138, (R/S)-N-(5-(2-Methyl-3-(4-methyl-5-oxo-4,5-dihydro-1,3,4-oxadiazol-2-yl)phenyl)pyrazin-2-yl)-1,2,3,4-tetrahydronaphthalene-2-carboxamide] it is 100 to 1000 nM.

As for `COc1c(C2=NOC(C)(C)C2=O)cccc1-c1ccc(NC(=O)c2c(F)cccc2F)cc1` [Example 31, N-(3′-(5,5-Dimethyl-4-oxo-4,5-dihydroisoxazol-3-yl)-2′-methoxy-[1,1′-bipheny;]-4-yl)-2,6-difluorobenzamide], the IC50 was in the range of 100 to 1000 nM. `Cn1nc(-c2ccc(OC(F)F)c(-c3ccc(C(=O)Nc4c(F)cccc4F)s3)c2)oc1=O` [Example 173, 5-(2-(Difluoromethoxy)-5-(4-methyl-5-oxo-4,5-dihydro-1,3,4-oxadiazol-2-yl)phenyl)-N-(2,6-difluorophenyl) thiophene-2-carboxamide] returned an IC50 of less than 100 nM. The figure for `Cc1ccc(C2=NOC(C)(C)C2=O)cc1-c1cnc(NC(=O)c2ccc(F)cc2)cn1` [Example 69, N-(5-(5-(5,5-Dimethyl-4-oxo-4,5-dihydroisoxazol-3-yl)-2-methylphenyl)pyrazine-2-yl)-4-fluorobenzamide] is more than 1000 nM.
